Test results taken from patent US11498899B2, “Nitrone herbicides” (FMC Corporation, priority 2016, dated 2022).

Key:
[1] = system: barnyardgrass (Echinochloa crus-galli); test: Test A preemergence, visual injury rating 0-100 (0 no effect, 100 complete control); type: in vivo
[2] = system: pigweed (Amaranthus retroflexus); test: Test A postemergence, visual injury rating 0-100; type: in vivo; conditions: 0 to 100 scale
corn (Zea mays) = test: Test A postemergence, visual injury rating 0-100; type: in vivo; conditions: 0 to 100 scale
kochia (Kochia scoparia) [3] = test: Test A postemergence, visual injury rating 0-100; type: in vivo; conditions: 0 to 100 scale
[4] = system: ragweed (common ragweed, Ambrosia elatior); test: Test A postemergence, visual injury rating 0-100; type: in vivo; conditions: 0 to 100 scale
[5] = system: wheat (Triticum aestivum); test: Test A postemergence, visual injury rating 0-100; type: in vivo; conditions: 0 to 100 scale
[6] = system: blackgrass (Alopecurus myosuroides); test: Test A postemergence, visual injury rating 0-100; type: in vivo; conditions: 0 to 100 scale
[7] = system: galium (catchweed bedstraw, Galium aparine); test: Test A postemergence, visual injury rating 0-100; type: in vivo; conditions: 0 to 100 scale
[8] = system: barnyardgrass (Echinochloa crus-galli); test: Test A postemergence, visual injury rating 0-100; type: in vivo; conditions: 0 to 100 scale
[9] = system: foxtail, giant (giant foxtail, Setaria faberii); test: Test A postemergence, visual injury rating 0-100; type: in vivo; conditions: 0 to 100 scale
[10] = system: ryegrass, Italian (Italian ryegrass, Lolium multiflorum); test: Test A postemergence, visual injury rating 0-100; type: in vivo; conditions: 0 to 100 scale
[11] = system: ducksalad (Heteranthera limosa); test: Test B flooded paddy test, visual rating 0-100; conditions: Flood, 250 g ai/ha, applied to paddy water, rated after 13 to 15 days
[12] = system: barnyardgrass (Echinochloa crus-galli); test: Test B flooded paddy test, visual rating 0-100; conditions: Flood, 250 g ai/ha, applied to paddy water, rated after 13 to 15 days
[13] = system: pigweed (Amaranthus retroflexus); test: Test A preemergence, visual injury rating 0-100; type: in vivo
kochia (Kochia scoparia) [14] = test: Test A preemergence, visual injury rating 0-100; type: in vivo
[15] = system: ragweed (common ragweed, Ambrosia elatior); test: Test A preemergence, visual injury rating 0-100; type: in vivo
[16] = system: foxtail, giant (giant foxtail, Setaria faberii); test: Test A preemergence, visual injury rating 0-100; type: in vivo
[17] = system: ryegrass, Italian (Italian ryegrass, Lolium multiflorum); test: Test A preemergence, visual injury rating 0-100; type: in vivo; conditions: 500 g ai/ha
rice (Oryza sativa) = test: Test B flooded paddy test, visual rating 0-100 (0 no effect, 100 complete control); conditions: Flood, 250 g ai/ha, applied to paddy water, rated after 13 to 15 days

CC1=[N+]([O-])C(C(=O)Nc2cccc(F)c2F)C(c2cc(C)cc(C)c2)C1 (racemic) [Compound 112]
Barnyardgrass plant response rating (0 to 100 scale) ([1]; 125 g ai/ha): 90 | Barnyardgrass plant response rating (0 to 100 scale) ([1]; 500 g ai/ha): 100 | Pigweed plant response rating ([2]; 125 g ai/ha): 0 | Pigweed plant response rating ([2]; 500 g ai/ha): 0 | Corn plant response rating (corn (Zea mays); 125 g ai/ha): 80 | Corn plant response rating (corn (Zea mays); 500 g ai/ha): 90 | Kochia plant response rating (kochia (Kochia scoparia) [3]; 125 g ai/ha): 0 | Kochia plant response rating (kochia (Kochia scoparia) [3]; 500 g ai/ha): 20 | Ragweed plant response rating ([4]; 125 g ai/ha): 0 | Ragweed plant response rating ([4]; 500 g ai/ha): 60 | Wheat plant response rating ([5]; 125 g ai/ha): 40 | Wheat plant response rating ([5]; 500 g ai/ha): 70 | Blackgrass plant response rating ([6]; 125 g ai/ha): 80 | Blackgrass plant response rating ([6]; 500 g ai/ha): 80 | Galium plant response rating ([7]; 125 g ai/ha): 50 | Galium plant response rating ([7]; 500 g ai/ha): 70 | Barnyardgrass plant response rating ([8]; 125 g ai/ha): 70 | Barnyardgrass plant response rating ([8]; 500 g ai/ha): 90 | Foxtail, Giant plant response rating ([9]; 125 g ai/ha): 90 | Foxtail, Giant plant response rating ([9]; 500 g ai/ha): 90 | Ryegrass, Italian plant response rating ([10]; 125 g ai/ha): 40 | Ryegrass, Italian plant response rating ([10]; 500 g ai/ha): 90 | Ducksalad plant response rating (0 to 100 scale) [11]: 45 | Barnyardgrass plant response rating (0 to 100 scale) [12]: 70 | Pigweed plant response rating (0 to 100 scale) ([13]; 125 g ai/ha): 0 | Pigweed plant response rating (0 to 100 scale) ([13]; 500 g ai/ha): 70 | Kochia plant response rating (0 to 100 scale) (kochia (Kochia scoparia) [14]; 125 g ai/ha): 50 | Kochia plant response rating (0 to 100 scale) (kochia (Kochia scoparia) [14]; 500 g ai/ha): 90 | Ragweed plant response rating (0 to 100 scale) ([15]; 125 g ai/ha): 40 | Ragweed plant response rating (0 to 100 scale) ([15]; 500 g ai/ha): 80 | Foxtail, Giant plant response rating (0 to 100 scale) ([16]; 125 g ai/ha): 90 | Foxtail, Giant plant response rating (0 to 100 scale) ([16]; 500 g ai/ha): 100 | Ryegrass, Italian plant response rating (0 to 100 scale) [17]: 100 | Rice plant response rating (0 to 100 scale) (rice (Oryza sativa)): 0

CC1=[N+]([O-])C(C(=O)Nc2cccc(F)c2F)C(c2ccc(OC(F)(F)F)c(F)c2)C1 (racemic) [Compound 113]
Barnyardgrass plant response rating (0 to 100 scale) ([1]; 125 g ai/ha): 90 | Barnyardgrass plant response rating (0 to 100 scale) ([1]; 500 g ai/ha): 90 | Pigweed plant response rating ([2]; 125 g ai/ha): 0 | Pigweed plant response rating ([2]; 500 g ai/ha): 20 | Corn plant response rating (corn (Zea mays); 125 g ai/ha): 20 | Corn plant response rating (corn (Zea mays); 500 g ai/ha): 80 | Kochia plant response rating (kochia (Kochia scoparia) [3]; 125 g ai/ha): 0 | Kochia plant response rating (kochia (Kochia scoparia) [3]; 500 g ai/ha): 40 | Ragweed plant response rating ([4]; 125 g ai/ha): 50 | Ragweed plant response rating ([4]; 500 g ai/ha): 50 | Wheat plant response rating ([5]; 125 g ai/ha): 0 | Wheat plant response rating ([5]; 500 g ai/ha): 50 | Blackgrass plant response rating ([6]; 125 g ai/ha): 40 | Blackgrass plant response rating ([6]; 500 g ai/ha): 80 | Galium plant response rating ([7]; 125 g ai/ha): 50 | Galium plant response rating ([7]; 500 g ai/ha): 70 | Barnyardgrass plant response rating ([8]; 125 g ai/ha): 30 | Barnyardgrass plant response rating ([8]; 500 g ai/ha): 80 | Foxtail, Giant plant response rating ([9]; 125 g ai/ha): 80 | Foxtail, Giant plant response rating ([9]; 500 g ai/ha): 90 | Ryegrass, Italian plant response rating ([10]; 125 g ai/ha): 0 | Ryegrass, Italian plant response rating ([10]; 500 g ai/ha): 50 | Ducksalad plant response rating (0 to 100 scale) [11]: 0 | Barnyardgrass plant response rating (0 to 100 scale) [12]: 0 | Pigweed plant response rating (0 to 100 scale) ([13]; 125 g ai/ha): 30 | Pigweed plant response rating (0 to 100 scale) ([13]; 500 g ai/ha): 60 | Kochia plant response rating (0 to 100 scale) (kochia (Kochia scoparia) [14]; 125 g ai/ha): 10 | Kochia plant response rating (0 to 100 scale) (kochia (Kochia scoparia) [14]; 500 g ai/ha): 90 | Ragweed plant response rating (0 to 100 scale) ([15]; 125 g ai/ha): 0 | Ragweed plant response rating (0 to 100 scale) ([15]; 500 g ai/ha): 70 | Foxtail, Giant plant response rating (0 to 100 scale) ([16]; 125 g ai/ha): 90 | Foxtail, Giant plant response rating (0 to 100 scale) ([16]; 500 g ai/ha): 90 | Ryegrass, Italian plant response rating (0 to 100 scale) [17]: 80 | Rice plant response rating (0 to 100 scale) (rice (Oryza sativa)): 0

CC1=[N+]([O-])C(C(=O)Nc2cccc(F)c2F)C(c2cc(F)c(C(F)(F)F)c(F)c2)C1 (racemic) [Compound 114]
Barnyardgrass plant response rating (0 to 100 scale) ([1]; 125 g ai/ha): 90 | Barnyardgrass plant response rating (0 to 100 scale) ([1]; 500 g ai/ha): 90 | Pigweed plant response rating ([2]; 125 g ai/ha): 0 | Pigweed plant response rating ([2]; 500 g ai/ha): 70 | Corn plant response rating (corn (Zea mays); 125 g ai/ha): 40 | Corn plant response rating (corn (Zea mays); 500 g ai/ha): 80 | Kochia plant response rating (kochia (Kochia scoparia) [3]; 125 g ai/ha): 20 | Kochia plant response rating (kochia (Kochia scoparia) [3]; 500 g ai/ha): 70 | Ragweed plant response rating ([4]; 125 g ai/ha): 30 | Ragweed plant response rating ([4]; 500 g ai/ha): 70 | Wheat plant response rating ([5]; 125 g ai/ha): 40 | Wheat plant response rating ([5]; 500 g ai/ha): 60 | Blackgrass plant response rating ([6]; 125 g ai/ha): 80 | Blackgrass plant response rating ([6]; 500 g ai/ha): 80 | Galium plant response rating ([7]; 125 g ai/ha): 70 | Galium plant response rating ([7]; 500 g ai/ha): 70 | Barnyardgrass plant response rating ([8]; 125 g ai/ha): 70 | Barnyardgrass plant response rating ([8]; 500 g ai/ha): 90 | Foxtail, Giant plant response rating ([9]; 125 g ai/ha): 80 | Foxtail, Giant plant response rating ([9]; 500 g ai/ha): 90 | Ryegrass, Italian plant response rating ([10]; 125 g ai/ha): 60 | Ryegrass, Italian plant response rating ([10]; 500 g ai/ha): 70 | Ducksalad plant response rating (0 to 100 scale) [11]: 60 | Barnyardgrass plant response rating (0 to 100 scale) [12]: 40 | Pigweed plant response rating (0 to 100 scale) ([13]; 125 g ai/ha): 50 | Pigweed plant response rating (0 to 100 scale) ([13]; 500 g ai/ha): 80 | Kochia plant response rating (0 to 100 scale) (kochia (Kochia scoparia) [14]; 125 g ai/ha): 20 | Kochia plant response rating (0 to 100 scale) (kochia (Kochia scoparia) [14]; 500 g ai/ha): 80 | Ragweed plant response rating (0 to 100 scale) ([15]; 125 g ai/ha): 80 | Ragweed plant response rating (0 to 100 scale) ([15]; 500 g ai/ha): 90 | Foxtail, Giant plant response rating (0 to 100 scale) ([16]; 125 g ai/ha): 90 | Foxtail, Giant plant response rating (0 to 100 scale) ([16]; 500 g ai/ha): 90 | Ryegrass, Italian plant response rating (0 to 100 scale) [17]: 90 | Rice plant response rating (0 to 100 scale) (rice (Oryza sativa)): 30

CC1=[N+]([O-])C(C(=O)Nc2cccc(F)c2F)C(c2cccc(Oc3ncc(Cl)cn3)c2)C1 (racemic) [Compound 115]
Barnyardgrass plant response rating (0 to 100 scale) ([1]; 125 g ai/ha): 90 | Barnyardgrass plant response rating (0 to 100 scale) ([1]; 500 g ai/ha): 90 | Pigweed plant response rating ([2]; 125 g ai/ha): 0 | Pigweed plant response rating ([2]; 500 g ai/ha): 20 | Corn plant response rating (corn (Zea mays); 125 g ai/ha): 0 | Corn plant response rating (corn (Zea mays); 500 g ai/ha): 60 | Kochia plant response rating (kochia (Kochia scoparia) [3]; 125 g ai/ha): 0 | Kochia plant response rating (kochia (Kochia scoparia) [3]; 500 g ai/ha): 20 | Ragweed plant response rating ([4]; 125 g ai/ha): 0 | Ragweed plant response rating ([4]; 500 g ai/ha): 20 | Wheat plant response rating ([5]; 125 g ai/ha): 10 | Wheat plant response rating ([5]; 500 g ai/ha): 50 | Blackgrass plant response rating ([6]; 125 g ai/ha): 40 | Blackgrass plant response rating ([6]; 500 g ai/ha): 80 | Galium plant response rating ([7]; 125 g ai/ha): 40 | Galium plant response rating ([7]; 500 g ai/ha): 70 | Barnyardgrass plant response rating ([8]; 125 g ai/ha): 0 | Barnyardgrass plant response rating ([8]; 500 g ai/ha): 60 | Foxtail, Giant plant response rating ([9]; 125 g ai/ha): 0 | Foxtail, Giant plant response rating ([9]; 500 g ai/ha): 70 | Ryegrass, Italian plant response rating ([10]; 125 g ai/ha): 0 | Ryegrass, Italian plant response rating ([10]; 500 g ai/ha): 60 | Ducksalad plant response rating (0 to 100 scale) [11]: 0 | Barnyardgrass plant response rating (0 to 100 scale) [12]: 0 | Pigweed plant response rating (0 to 100 scale) ([13]; 125 g ai/ha): 0 | Pigweed plant response rating (0 to 100 scale) ([13]; 500 g ai/ha): 0 | Kochia plant response rating (0 to 100 scale) (kochia (Kochia scoparia) [14]; 125 g ai/ha): 0 | Kochia plant response rating (0 to 100 scale) (kochia (Kochia scoparia) [14]; 500 g ai/ha): 30 | Ragweed plant response rating (0 to 100 scale) ([15]; 125 g ai/ha): 0 | Ragweed plant response rating (0 to 100 scale) ([15]; 500 g ai/ha): 20 | Foxtail, Giant plant response rating (0 to 100 scale) ([16]; 125 g ai/ha): 20 | Foxtail, Giant plant response rating (0 to 100 scale) ([16]; 500 g ai/ha): 90 | Ryegrass, Italian plant response rating (0 to 100 scale) [17]: 80 | Rice plant response rating (0 to 100 scale) (rice (Oryza sativa)): 0
